Each structure is given as a SMILES string.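 Values below derive from 48-hour exposures of cells grown in 96-well plates, with endpoints linearly interpolated between the two concentrations bracketing the appropriate inhibition level. Abbreviation: GI50, concentration required for 50% inhibition of growth. TGI: concentration producing complete growth inhibition.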

Data on twelve molecules can be found in PubChem BioAssay (NCI).

Among the test systems are K-562 leukemia; COLO 205 colon; RXF 393 renal; SR leukemia; EKVX NSCLC; UO-31 renal; LOX IMVI melanoma; HCT-15 colon; OVCAR-4 ovarian; HL-60(TB) leukemia.
Holding throughout (assay): inhibition of tumour cell growth, NCI panel, 48 h

`COc1cc(C2SCCCCCCCCCCSC(c3ccc(O)c(OC)c3)SCCCCCCCCCCS2)ccc1O` (configuration not stated): the TGI in the test on K-562 leukemia, with COLO 205 colon, in the test with RXF 393 renal, in the test on SR leukemia, with EKVX NSCLC and in the test on UO-31 renal was above 100 µM throughout. Besides, the TGI with LOX IMVI melanoma, in the test with HCT-15 colon and in the test on OVCAR-4 ovarian was above 100 µM in each case.
With `CCCCCCCCOC(=O)CC[C@@H](C)[C@H]1CC[C@H]2[C@@H]3[C@H](OC(=O)CCN)C[C@@H]4C[C@H](OC(=O)CCN)CC[C@]4(C)[C@H]3C[C@H](OC(=O)CCN)[C@]12C`, the GI50 with COLO 205 colon was 4.74 µM; in the test with RXF 393 renal, 9.66 µM; in the test on HL-60(TB) leukemia, 3.32 µM; in the test with UO-31 renal it was 21.9 µM; in the test with LOX IMVI melanoma, 2.23 µM; in the test on HCT-15 colon, 16.4 µM. Also, the GI50 with OVCAR-4 ovarian was 6.31 µM. For the same molecule, the TGI in the test on COLO 205 colon amounted to 20.6 µM; in the test on RXF 393 renal it was 29 µM; in the test on HL-60(TB) leukemia, 11.3 µM; in the test on UO-31 renal, 42 µM; with LOX IMVI melanoma it was 4.51 µM; in the test on HCT-15 colon it was 38.9 µM. Besides, the TGI in the test with OVCAR-4 ovarian was 28.5 µM.
Regarding `O=c1c2cc(F)ccc2sc2c(N3CCNCC3)nc3ccc(F)cc3c12`, the GI50 with COLO 205 colon was 2.15 µM; in the test on RXF 393 renal it was 1.33 µM; with HL-60(TB) leukemia, 2.05 µM; in the test on EKVX NSCLC, 1.62 µM; in the test on UO-31 renal, 1.31 µM; in the test with LOX IMVI melanoma it was 1.62 µM. The GI50 was 1.44 µM in the test on HCT-15 colon and 1.83 µM with OVCAR-4 ovarian. Further, the TGI in the test on COLO 205 colon was 4.72 µM; in the test on RXF 393 renal, 2.71 µM; in the test with HL-60(TB) leukemia, 3.94 µM; in the test on EKVX NSCLC, 3.04 µM; in the test with UO-31 renal, 2.6 µM; in the test with LOX IMVI melanoma it was 3.16 µM. For the same molecule, the TGI came to 2.84 µM in the test on HCT-15 colon and 3.48 µM in the test with OVCAR-4 ovarian.
`NS(=O)(=O)c1ccc(-n2nc3c(c2-c2ccc(Cl)cc2)Cc2ccccc2-3)cc1`: the GI50 with K-562 leukemia is 4.98 µM; in the test with COLO 205 colon, 22.8 µM; with RXF 393 renal, 17 µM; in the test with SR leukemia it was 5.82 µM; in the test with EKVX NSCLC, 17.1 µM; in the test with UO-31 renal, 9.57 µM. Also, the GI50 with LOX IMVI melanoma was 19 µM; in the test with HCT-15 colon, 19.7 µM; in the test with OVCAR-4 ovarian it was 15 µM. The TGI is 17.2 µM in the test with K-562 leukemia; 64.1 µM in the test on COLO 205 colon; 34.4 µM in the test on RXF 393 renal; 21.3 µM in the test on SR leukemia; 33.5 µM in the test with EKVX NSCLC; 21.8 µM in the test with UO-31 renal. The values for the TGI with LOX IMVI melanoma, with HCT-15 colon and with OVCAR-4 ovarian were 37.4 µM, 38.4 µM and 30.3 µM, respectively.
Take `COC(=O)c1cc2c3ccccc3n3c(=O)c4cc5ccc(N(S(=O)(=O)c6ccc(C)cc6)S(=O)(=O)c6ccc(C)cc6)cc5nc4c(n1)c23`: the GI50 in the test with K-562 leukemia is 39.4 µM; with COLO 205 colon, above 100 µM; with RXF 393 renal it was 13.1 µM; with HL-60(TB) leukemia it was above 100 µM; in the test with EKVX NSCLC, 53.6 µM; in the test with UO-31 renal, above 100 µM. Besides, the values for the GI50 with LOX IMVI melanoma, in the test with HCT-15 colon and in the test on OVCAR-4 ovarian were 48.5 µM, above 100 µM and above 100 µM, respectively. Also, the TGI in the test with K-562 leukemia is above 100 µM; in the test on COLO 205 colon, above 100 µM; in the test on RXF 393 renal, 37.8 µM; in the test with HL-60(TB) leukemia, above 100 µM; in the test on EKVX NSCLC, above 100 µM; with UO-31 renal, above 100 µM. The TGI in the test on LOX IMVI melanoma, in the test on HCT-15 colon and in the test with OVCAR-4 ovarian was above 100 µM throughout.
Regarding `CCCNC(=O)C1C(=O)C(=O)N(CCC)C1=O` (configuration not stated), the TGI in the test on K-562 leukemia, in the test on COLO 205 colon, with RXF 393 renal, in the test with EKVX NSCLC, in the test on UO-31 renal and with LOX IMVI melanoma was above 100 µM throughout. The TGI in the test on HCT-15 colon and in the test with OVCAR-4 ovarian was above 100 µM throughout.
On to `C#Cc1cccc(N2C(=O)c3c(c(-c4ccccc4)c(-c4ccc(Cc5ccc(-c6c(-c7ccccc7)c7c(c(-c8ccccc8)c6-c6ccccc6)C(=O)N(c6cccc(C#C)c6)C7=O)cc5)cc4)c(-c4ccccc4)c3-c3ccccc3)C2=O)c1`, for which the TGI is above 100 µM in the test with K-562 leukemia; 66.5 µM in the test on COLO 205 colon; above 100 µM with RXF 393 renal; above 100 µM with HL-60(TB) leukemia; above 100 µM in the test on EKVX NSCLC; above 100 µM in the test with UO-31 renal. Besides, the TGI with HCT-15 colon and with OVCAR-4 ovarian was above 100 µM each time.
Turning to `O=C(CCC(=O)Nc1ccc(Cl)c(Cl)c1)CC(=O)c1ccc(Br)cc1`, the TGI in the test on K-562 leukemia, with COLO 205 colon, in the test on RXF 393 renal, with EKVX NSCLC, in the test with UO-31 renal and in the test with LOX IMVI melanoma was above 100 µM throughout. Moreover, the TGI with HCT-15 colon and with OVCAR-4 ovarian was above 100 µM throughout.
As for `CC1=C[C@H]2c3c([nH]c4ccccc34)C(c3c[nH]c4ccccc34)[C@H]2CC1` (some centres not stated), the TGI in the test on K-562 leukemia was 12.7 µM; in the test on COLO 205 colon, 13 µM; in the test on RXF 393 renal, 4.19 µM; with HL-60(TB) leukemia, 17.6 µM; in the test with EKVX NSCLC it was 29.7 µM; with LOX IMVI melanoma, 5.83 µM. Also, the TGI in the test on HCT-15 colon stood at 18.8 µM.
Turning to `CC(=O)N/N=C1\CC(C)(C)C2CCC1C2` (configuration not stated), the TGI in the test with K-562 leukemia, in the test with COLO 205 colon, in the test on RXF 393 renal, in the test with HL-60(TB) leukemia, in the test on EKVX NSCLC and in the test on UO-31 renal was above 100 µM throughout. The TGI in the test with LOX IMVI melanoma, in the test on HCT-15 colon and in the test on OVCAR-4 ovarian was above 100 µM in each case.
As to `COC/C=C\COC`, the TGI in the test with K-562 leukemia, with COLO 205 colon, in the test on RXF 393 renal, in the test on HL-60(TB) leukemia, in the test with EKVX NSCLC and with UO-31 renal was above 100 µM each time. In addition, the TGI in the test on LOX IMVI melanoma, with HCT-15 colon and in the test on OVCAR-4 ovarian was above 100 µM each time.
As to `N/N=C1\C(=O)N(C2CCCCCC2)C(=O)C1C(=O)NC1CCCCCC1` (configuration not stated), the TGI with K-562 leukemia was above 100 µM; with COLO 205 colon it was above 100 µM; in the test on RXF 393 renal it was 69.8 µM; with HL-60(TB) leukemia, 45.1 µM; in the test with EKVX NSCLC, above 100 µM; in the test on UO-31 renal, 42 µM. The results for the TGI in the test on HCT-15 colon and with OVCAR-4 ovarian were 82.7 µM and above 100 µM, respectively.
